In test [1] the test system is Canis familiaris. Nature of the test: Inhibition of gastric acid secretion stimulated by histamine in dog was determined by peroral administration of the compound. Type of test: functional. The following applies: Canis lupus familiaris, Stomach, po.
For test [2], the system named is Rattus norvegicus. In words: Cytoprotective activity against ethyle alcohol induced ulcers was determined in rats by peroral administration of the compound. In kind it is functional. To be noted: po.
The species named for test [3] is Mus musculus. In words: Organ weight ratio was determined for the compound :control.
In test [4] the test system is Mus musculus. Nature of the test: Organ weight (stomach) was determined after administration of the compound.
The species entered for test [5] is Mus musculus. Nature of the test: Histopathology of the stomach was determined as HGM (Hyperplasia of grandular mucosa) in the presence of the compound.
For test [6], the species on record is Mus musculus. Nature of the test: Organ weight ratio was determined for the compound with respect to (8-Benzyloxy-2-methyl-imidazo[1,2-a]pyridin-3-yl) compound.
For test [7], the system named is Canis familiaris. Nature of the test: Inhibition of gastric acid secretion stimulated by histamine in dog was determined by peroral administration; value ranges from 2.3-59.2. Type of test: functional. To be noted: Canis lupus familiaris, Stomach, po.
Test [8] is filed under the species Mus musculus. In words: Histopathology of the stomach was determined; N means normal variation in the presence of the compound.
In test [9] the test system is Canis familiaris. Nature of the test: Inhibition of gastric acid secretion stimulated by histamine in dog was determined by peroral administration; IA means inactive oral dose of 8 mg/kg. In kind it is functional, organism-based. On the set-up: dose 8 mg/kg. The following applies: Canis lupus familiaris; Stomach.
For test [10], the system named is Canis familiaris. In words: Inhibition of gastric acid secretion stimulated by histamine in dog was determined by peroral administration; value ranges from 0.6-3.9. Type of test: functional. The following applies: Canis lupus familiaris, Stomach, po.
Test [11] has as its system Canis familiaris. Nature of the test: Inhibition of gastric acid secretion stimulated by histamine in dog was determined by peroral administration; IA means inactive. In kind it is functional, organism-based. The following applies: Canis lupus familiaris; Stomach.
Test [12] concerns Canis familiaris. Nature of the test: Inhibition of gastric acid secretion stimulated by histamine in dog was determined by peroral administration confidence limits (p=0.05.); value ranges from 2.1-14.0. To be noted: Canis lupus familiaris, Stomach, po. Type of test: functional.
The species entered for test [13] is Mus musculus. Nature of the test: Histopathology of the stomach was determined as HGM (Hyperplasia of grandular mucosa)in the presence of the compound.
In test [14] the test system is Canis familiaris. In words: Inhibition of gastric acid secretion stimulated by histamine in dog was determined by peroral administration; the regression was not significant. Type of test: functional. The following applies: Canis lupus familiaris, Stomach, po.
Test [15] has as its system Canis familiaris. Nature of the test: Percent inhibition of Histamine -stimulated gastric acid secretion at the oral dosage of 4 mg/kg. To be noted: Canis lupus familiaris, Stomach. In kind it is functional.
The test system of test [16] is Canis familiaris. In words: Percent inhibition of Histamine -stimulated gastric acid secretion at the oral dosage of 8 mg/kg. Type of test: functional. To be noted: Canis lupus familiaris, Stomach.
The subject of test [17] is Canis familiaris. Nature of the test: Percent inhibition of Histamine stimulated gastric acid secretion at oral dosage of 4 mg/kg. In kind it is functional. To be noted: Canis lupus familiaris, Stomach.
In test [18] the test system is Canis familiaris. In words: Percent inhibition of Histamine stimulated gastric acid secretion at oral dosage of 8 mg/kg. In kind it is functional. The following applies: Canis lupus familiaris, Stomach.
The subject of test [19] is Rattus norvegicus. Nature of the test: Cytoprotective activity against ethyle alcohol induced ulcers was determined in rats by peroral administration; IA means inactive. Type of test: functional, organism-based.
Test [20] concerns Canis familiaris. In words: Inhibition of gastric acid secretion stimulated by histamine in dog was determined by peroral administration; value ranges from 3.2-50.6. Type of test: functional. The following applies: Canis lupus familiaris, Stomach, po.

What is called ED50 is the midpoint of the dose-response relation. In general, inhibition in vivo refers to the change of the read-out against control, counted positive when it falls. High values mean a response far below the control, low ones a response near the control.

The structures appear in SMILES notation. Active and inactive are the calls of the source. The rule behind the calls is not given here. Where only a bound is given, the exact number is not on record here.

`Cc1nc2c(OCc3ccsc3)cccn2c1CC#N`: the ED50 in the test with Canis familiaris [1] is 2.7 mg/kg; in the test on Rattus norvegicus [2] it was 2 mg/kg. In addition, the Organ weight ratio in the test listed under Mus musculus [3] came out at 1.5; in the test listed under Mus musculus [6] it was 1. The Organ weight in the test with Mus musculus [4] turned out to be 1.12 g. Moreover, the Histopathology result in the test filed under Mus musculus [5] is given as “Hyperplasia of glandular mucosa”.
Turning to `Cc1nc2c(CCc3ccccc3)cccn2c1N`, the ED50 with Canis familiaris [7] came out at 6.8 mg/kg; with Rattus norvegicus [2] it was 9 mg/kg. Moreover, the results for the Organ weight ratio in the test listed under Mus musculus [3] and in the test listed under Mus musculus [6] were 1.1 and 0.8, respectively. The compound also displayed an Organ weight in the test with Mus musculus [4] of 0.88 g. Also, the Histopathology result in the test filed under Mus musculus [8] is recorded as “Within normal variation”.
Regarding `Cc1nc2ccc(CCc3ccccc3)cn2c1CC#N`, in the test on Canis familiaris [9], the ED50 entry is “inactive”. In the test with Rattus norvegicus [2], this compound registered an ED50 of 2.7 mg/kg. In addition, the Organ weight ratio in the test listed under Mus musculus [3] came out at 1; in the test filed under Mus musculus [6], 0.7. Besides, the Organ weight with Mus musculus [4] is reported as 0.81 g. In the test listed under Mus musculus [8], the Histopathology entry is reported as “Within normal variation”.
As to `Cc1nc2c(OCc3ccccc3)nccn2c1N`, the ED50 came out at 1.4 mg/kg in the test on Canis familiaris [10] and 5 mg/kg with Rattus norvegicus [2]. In addition, the figures for the Organ weight ratio in the test filed under Mus musculus [3] and in the test filed under Mus musculus [6] were 1.1 and 0.8, respectively. Also, in the test with Mus musculus [4], the Organ weight turned out to be 0.86 g. Also, in the test listed under Mus musculus [8], the Histopathology result was “Within normal variation”.
With `Cc1cn2c(OCc3ccccc3)cccc2n1`, the ED50 result with Canis familiaris [11] was “inactive”. Further, the ED50 with Rattus norvegicus [2] is 1 mg/kg. Also, the results for the Organ weight ratio in the test listed under Mus musculus [3] and in the test listed under Mus musculus [6] were 0.9 and 0.7, respectively. The Organ weight with Mus musculus [4] was 0.76 g. Besides, the Histopathology entry in the test listed under Mus musculus [8] is reported as “Within normal variation”.
In the case of `Cc1nc2c(OCc3ccccc3)cccn2c1CC#N`, the ED50 is 4.4 mg/kg in the test with Canis familiaris [12] and 3 mg/kg in the test on Rattus norvegicus [2]. For the same compound, the Organ weight ratio came out at 1.4 in the test listed under Mus musculus [3] and 1 in the test filed under Mus musculus [6]. The compound also showed an Organ weight in the test with Mus musculus [4] of 1.13 g. Besides, the Histopathology entry in the test filed under Mus musculus [13] is “Hyperplasia of glandular mucosa”.
As for `Cc1nc2ccc(CCc3ccccc3)cn2c1N`, the ED50 result in the test on Canis familiaris [11] was “inactive”. In addition, in the test on Rattus norvegicus [2], the 50% effect level (ED50) was put at a dose of 5.7 mg/kg. Also, the Organ weight ratio is 1 in the test filed under Mus musculus [3] and 0.7 in the test listed under Mus musculus [6]. In the test on Mus musculus [4], this compound registered an Organ weight of 0.81 g. In addition, the Histopathology entry in the test listed under Mus musculus [8] is listed as “Within normal variation”.
As for `Cc1nc2c(OCc3ccccc3)cccn2c1N`, the median effective dose (ED50) with Canis familiaris [14] worked out at 2 mg/kg; with Rattus norvegicus [2], 6 mg/kg. Moreover, the results for the Organ weight ratio in the test listed under Mus musculus [3] and in the test filed under Mus musculus [6] were 1.2 and 1, respectively. This compound also displayed an Organ weight in the test with Mus musculus [4] of 1.09 g. Also, the Histopathology result in the test filed under Mus musculus [13] is given as “Hyperplasia of glandular mucosa”.
In the test with Canis familiaris [15], `Cc1nc2c(CCc3ccccc3)cccn2c1CC#N` returned an inhibition in vivo at 4 mg/kg of 3%. Moreover, the ED50 in the test with Canis familiaris [1] is greater than 4.4 mg/kg; with Rattus norvegicus [2] it was 7 mg/kg. In the test with Canis familiaris [16], this compound had an inhibition in vivo at 8 mg/kg of 83%. Moreover, the Organ weight ratio turned out to be 1.2 in the test listed under Mus musculus [3] and 0.9 in the test filed under Mus musculus [6]. The compound further showed an Organ weight in the test with Mus musculus [4] of 0.99 g. Besides, the Histopathology entry in the test listed under Mus musculus [13] is recorded as “Hyperplasia of glandular mucosa”.
For `Cc1c(CC#N)nc2c(OCc3ccccc3)cccn12`, the inhibition in vivo at 4 mg/kg in the test on Canis familiaris [17] was found to be 19%. For the same compound, testing at 8 mg/kg with Canis familiaris [18] gave an inhibition in vivo of 91%. For the same compound, the ED50 in the test with Canis familiaris [1] is greater than 4.4 mg/kg. Further, the ED50 result in the test on Rattus norvegicus [19] is “inactive”. Further, the Organ weight ratio in the test listed under Mus musculus [3] was 1.2; in the test listed under Mus musculus [6], 0.9. Also, in the test on Mus musculus [4], the Organ weight is recorded as 0.98 g. The Histopathology entry in the test filed under Mus musculus [13] is “Hyperplasia of glandular mucosa”.
Regarding `Cc1nc2c(O)cccn2c1CC#N`, the ED50 entry with Canis familiaris [11] and in the test on Rattus norvegicus [19] was “inactive” each time. Besides, the figures for the Organ weight ratio in the test filed under Mus musculus [3] and in the test filed under Mus musculus [6] were 1 and 0.7, respectively. In the test with Mus musculus [4], the Organ weight came to 0.8 g. In addition, in the test listed under Mus musculus [8], the Histopathology entry is “Within normal variation”.
Consider `Cc1cn2cccc(OCc3ccccc3)c2n1`, for which the ED50 entry in the test with Canis familiaris [11] was “inactive”. Also, it took a dose of 4 mg/kg to reach the 50% effect level in the test with Rattus norvegicus [2] (ED50). For the same compound, the results for the Organ weight ratio in the test listed under Mus musculus [3] and in the test filed under Mus musculus [6] were 1 and 0.7, respectively. This compound also gave an Organ weight in the test on Mus musculus [4] of 0.84 g. Also, the Histopathology result in the test filed under Mus musculus [8] is on record as “Within normal variation”.
Take `Cc1ccn2c(CC#N)c(C)nc2c1OCc1ccccc1`: the ED50 was 13 mg/kg in the test with Rattus norvegicus [2] and 7.1 mg/kg with Canis familiaris [20]. Besides, the results for the Organ weight ratio in the test listed under Mus musculus [3] and in the test listed under Mus musculus [6] were 1.1 and 0.8, respectively. In the test with Mus musculus [4], this compound gave an Organ weight of 0.9 g. Further, the Histopathology result in the test listed under Mus musculus [8] is on record as “Within normal variation”.
In the case of `Cc1nc2c(NCc3ccccc3)cccn2c1CC#N`, the ED50 worked out at 6.7 mg/kg with Canis familiaris [1] and 2 mg/kg with Rattus norvegicus [2]. In addition, the Organ weight ratio came to 1.2 in the test listed under Mus musculus [3] and 0.8 in the test filed under Mus musculus [6]. Moreover, the Organ weight with Mus musculus [4] was found to be 0.9 g. Further, in the test filed under Mus musculus [13], the Histopathology entry is listed as “Hyperplasia of glandular mucosa”.

The values are drawn from ChEMBL document CHEMBL1123917, “Antiulcer agents. 3. Structure-activity-toxicity relationships of substituted imidazo[1,2-a]pyridines and a related imidazo[1,2-a]pyrazine” (1987).
